# Test results: the NIST ThermoML archive (doi:10.1016/j.tca.2017.12.015)
# Numbers after ± are expanded uncertainties.
# Settings: for Normal melting temperature: Crystal 1, DTA
Structure (SMILES),Normal melting temperature [°C],"Triple point temperature (Crystal 2, DSC) [K]"
O=C[C@H](O)[C@@H](O)[C@H](O)[C@H](O)CO [D-glucose],162.10 ± 2,–
NCC(=O)O [2-aminoacetic acid],254.70 ± 2,–
Cn1c(=O)c2c(ncn2C)n(C)c1=O [caffeine],236.20 ± 2,432.55 ± 6

# The next lines start with the values.
Normal melting temperature [°C],"Triple point temperature (Crystal 2, DSC) [K]",Structure (SMILES)
190.90 ± 2,–,OC[C@H]1O[C@@](CO)(O[C@H]2O[C@H](CO)[C@@H](O)[C@H](O)[C@H]2O)[C@@H](O)[C@@H]1O [D-sucrose]
99.70 ± 2,–,OC[C@@H](O)[C@@H](O)[C@H](O)[C@@H](O)CO [D-sorbitol]
